Laboratory results published in US20250353860A1, “PIPERIDINE CARBOXAMIDE AZAINDANE DERIVATIVE, METHOD FOR PREPARING SAME, AND USE THEREOF” (BRISE PHARMACEUTICALS CO., LTD., priority 2022, published 2025).

Tests used:
[1] = molecular target: CGRP receptor (Homo sapiens, UniProt O60894+Q16602); assay: Inhibition of CGRP signaling pathway (cAMP, HTRF) in SK-N-MC cells; type: cell-based; parameters: SK-N-MC (ATCC, HTB-10) cells endogenously expressing CGRP receptor; host or cells: SK-N-MC; conditions: [α-CGRP]=10 ng/mL; increase in cAMP levels; read-out: IC50 of the inhibitory effect on the CGRP signaling pathway in SK-N-MC cells
Sequence of CGRP receptor (Q16602 23-461): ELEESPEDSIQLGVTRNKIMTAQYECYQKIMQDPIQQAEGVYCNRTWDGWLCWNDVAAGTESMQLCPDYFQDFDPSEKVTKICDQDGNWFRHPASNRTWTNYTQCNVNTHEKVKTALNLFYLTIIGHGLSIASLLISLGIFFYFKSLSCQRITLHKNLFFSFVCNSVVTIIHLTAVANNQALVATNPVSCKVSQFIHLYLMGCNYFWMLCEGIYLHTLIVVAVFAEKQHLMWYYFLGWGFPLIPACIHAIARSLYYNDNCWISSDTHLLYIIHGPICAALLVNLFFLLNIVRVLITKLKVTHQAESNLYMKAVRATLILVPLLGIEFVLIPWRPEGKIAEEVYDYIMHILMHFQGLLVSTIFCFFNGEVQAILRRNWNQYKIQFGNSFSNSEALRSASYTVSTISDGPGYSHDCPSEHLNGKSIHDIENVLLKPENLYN
Sequence of CGRP receptor (O60894 27-148): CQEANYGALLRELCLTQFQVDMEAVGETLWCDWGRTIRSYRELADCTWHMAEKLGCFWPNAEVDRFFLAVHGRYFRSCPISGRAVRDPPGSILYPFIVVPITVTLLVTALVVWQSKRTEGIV
Experimental: The inhibitory effect of the CGRP signaling pathway in vitro is evaluated by measuring the cAMP level. The principle is that after CGRP binds to the CGRP receptor, the CGRP signaling pathway is activated, inducing an increase in the cAMP level. […] The specific experimental method is as follows:
cAMP was determined using the CAMP-GS DYNAMIC KIT detection kit (Cisbio, 62AM4PEB).
SK-N-MC (ATCC, HTB-10) cells endogenously expressing CGRP receptor were cultured in EMEM+10% FBS medium and the cells were collected during the logarithmic growth phase. According to the instructions of the kit, the cells were resuspended in Stimulation Buffer comprising 0.5 mM IBMX, and 5 μL of the cell suspension was added to each well of a 96-well microplate (Cisbio, 66PL96025) at a cell density of 15,000 cells/well, 2.5 μL of gradient diluted compound solution was added to each well. After incubation at 37° C. for 30 minutes, 2.5 μL of 40 ng/ml human α-CGRP (Bachem, H-1470.0500) diluted in Stimulation Buffer comprising 0.5 mM IBMX was added to each well to a final concentration of 10 ng/ml. After incubation at 37° C. for 30 minutes, 5 μL of Anti-cAMP-Cryptate solution and 5 μL of cAMP-d2 solution were added to each well. After incubation at room temperature for 60 minutes, the HTRF signal was read using a microplate reader (Molecular Devices). Graphpad Prism was used to calculate the IC50 value of the compound's inhibitory effect on the increase in cAMP levels based on the compound concentration and HTRF signal.

[2] = tested on: Cynomolgus monkey blood flow; assay: Capsaicin-induced Cynomolgus monkey blood flow model; type: in vivo, Cynomolgus monkeys; conditions: N = 3
Experimental: In the capsaicin-induced Cynomolgus monkey blood flow model, the inhibitory effect of the compounds of the present application on cynomolgus monkey blood flow was evaluated.
In Example 1A and Example 3A, 100% polyethylene glycol 400 was used as the vehicle.
Experimental animals: male cynomolgus monkeys, with a body weight range of 3.2 kg to 5.80 kg during the administration period, purchased from Guangxi Xiongsen Primate Experimental Animal Breeding and Development Co., Ltd., production license: SCXK (Gui) 2016-0003; experimental animal quality certificate number: NO. 0002942.
Housing conditions: animals were kept in stainless steel cages by a single cage feeding method. The cage specifications are length×width×height=1 m×1 m×0.8 m. Before anesthesia with zoletil, the animals need to be fasted (but not water). The rest of the time, the animals were fed once in the morning and afternoon, about 100 g each time for one animal, supplemented with fresh fruits. The temperature of the animal room was set at 18-26° C., the humidity was 40-70%, and the lighting was alternating between light and dark for 12 hours.
After adaptive feeding, 10 cynomolgus monkeys were randomly selected, and the basal values were recorded using a moorFLPI-2 laser speckle blood flowmeter before capsaicin stimulation. After capsaicin stimulation, blood flow was tested again, and animals with an area under the time-blood flow rate curve (AUC)≥1000 (min·%) and small individual differences were selected to enter this experiment.
The blank vehicle control group was given 100% polyethylene glycol 400, and the drug administration group was given high and low doses of Example 1A and Example 3A (dissolved in 100% polyethylene glycol 400), respectively.
Note: Bolus is a large-dose push injection; Infusion is a small-dose continuous infusion.
Blood flow detection: all animals were given capsaicin once on the day of administration, and blood flow was detected at 0 min (before capsaicin administration), 5 min, 10 min, 15 min, 20 min and 30 min after capsaicin administration to monitor blood flow changes during this period. After the experiment ended that day, washout was carried out at intervals of 7-10 days, during which the experimental animals were rotated in turn. This type of experiment was repeated three times to obtain the average value of each group of data.
The blood flow change rate, AUC (area under the blood flow change rate-time curve) and blood flow inhibition rate were calculated using Excel.

[3] = 5 min after capsaicin, 0.3 μg/kg + 0.03 μg/kg/min
[4] = 5 min after capsaicin, 1 μg/kg + 0.1 μg/kg/min
[5] = 10 min after capsaicin, 0.3 μg/kg + 0.03 μg/kg/min
[6] = 10 min after capsaicin, 1 μg/kg + 0.1 μg/kg/min
[7] = 15 min after capsaicin, 0.3 μg/kg + 0.03 μg/kg/min
[8] = 15 min after capsaicin, 1 μg/kg + 0.1 μg/kg/min
[9] = 20 min after capsaicin, 0.3 μg/kg + 0.03 μg/kg/min
[10] = 20 min after capsaicin, 1 μg/kg + 0.1 μg/kg/min
[11] = 30 min after capsaicin, 0.3 μg/kg + 0.03 μg/kg/min
[12] = 30 min after capsaicin, 1 μg/kg + 0.1 μg/kg/min

SMILES | IC50 [1] [pM] | AUC (area under the blood flow change rate-time curve) ([2]; 0.3 μg/kg + 0.03 μg/kg/min) [%-min] | AUC (area under the blood flow change rate-time curve) ([2]; 1 μg/kg + 0.1 μg/kg/min) [%-min] | Blood flow change rate [2, 3] [%] | Blood flow change rate [2, 4] [%] | Blood flow change rate [2, 5] [%] | Blood flow change rate [2, 6] [%] | Blood flow change rate [2, 7] [%] | Blood flow change rate [2, 8] [%] | Blood flow change rate [2, 9] [%] | Blood flow change rate [2, 10] [%] | Blood flow change rate [2, 11] [%] | Blood flow change rate [2, 12] [%]
C[C@@H]1[C@H](c2c(F)ccc(F)c2F)C[C@H](NC(=O)c2cnc3c(c2)C[C@@]2(C3)C(=O)Nc3ncccc32)C(=O)N1CC(F)(F)F [Atogepant, reference compound] | 120 | – | – | – | – | – | – | – | – | – | – | – | –
C[C@@H]1[C@H](c2c(F)ccc(F)c2F)C[C@H](NC(=O)c2cc3c(o2)CC[C@]2(C3)C(=O)Nc3ncccc32)C(=O)N1CC(F)(F)F [Example 1A, (R)—N-((3S,5S,6R)-6-methyl-2-oxo-1-(2,2,2-trifluoroethyl)-5-(2,3,6-trifluorophenyl)piperidin-3-yl)-2′-oxo-1′,2′,6,7-tetrahydro-4H-spiro[benzofuran-5,3′-pyrrolo[2,3-b]pyridine]-2-carboxamide] | 180 | 454 | 198 | 26 | 12 | 37 | 21 | 26 | 5 | 12 | 9 | −4 | −6
C[C@@H]1[C@H](c2c(F)ccc(F)c2F)C[C@H](NC(=O)c2cc3c(s2)C[C@]2(C3)C(=O)Nc3ncccc32)C(=O)N1CC(F)(F)F [Example 3A, (S)—N-((3S,5S,6R)-6-methyl-2-oxo-1-(2,2,2-trifluoroethyl)-5-(2,3,6-trifluorophenyl)piperidin-3-yl)-2′-oxo-1′,2′,4,6-tetrahydrospiro[cyclopenta[b]thiophene-5,3′-pyrrolo[2,3-b]pyridine]-2-carboxamide] | 680 | 1481 | 395 | 69 | 27 | 71 | 35 | 69 | 25 | 48 | 3 | 49 | 1
